In patent US20240360150A1, “ISOINDOLINONE COMPOUNDS AND USES THEREOF” (HANGZHOU GLUBIO PHARMACEUTICAL CO. LTD., priority 2021, published 2024):
Like-named read-outs stand apart in the source and are kept apart here.

Key:
Assay type in all cases: cell-based
[1] = target: T1, HiBiT-tagged IKZF1 (Homo sapiens, UniProt Q13422+Q96SW2); assay: Degradation assay for IKZF1 (HiBiT tag bioluminescence assay); conditions: HT-1080 IKZF1 HiBiT reporter cells; for DC50: read-out: HiBiT IKZF1: DC50
T1 construct: expressed in transfected cells; host or cells: HT-1080 (ATCC CCL-121), lentiviral transduction
T1 sequence (Q13422 whole entry): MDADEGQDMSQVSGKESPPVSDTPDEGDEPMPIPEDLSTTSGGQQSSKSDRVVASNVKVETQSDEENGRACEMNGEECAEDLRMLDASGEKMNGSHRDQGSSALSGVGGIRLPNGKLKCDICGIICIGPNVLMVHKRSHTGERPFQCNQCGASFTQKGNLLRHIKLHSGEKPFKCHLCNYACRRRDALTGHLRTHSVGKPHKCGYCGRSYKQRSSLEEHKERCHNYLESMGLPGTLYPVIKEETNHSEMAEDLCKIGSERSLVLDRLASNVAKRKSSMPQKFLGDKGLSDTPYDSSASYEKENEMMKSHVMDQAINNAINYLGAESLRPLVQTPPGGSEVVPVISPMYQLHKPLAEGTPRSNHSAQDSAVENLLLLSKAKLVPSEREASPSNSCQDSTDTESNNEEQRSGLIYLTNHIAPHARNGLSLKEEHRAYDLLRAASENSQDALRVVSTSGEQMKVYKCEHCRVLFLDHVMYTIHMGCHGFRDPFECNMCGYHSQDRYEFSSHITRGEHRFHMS
T1 sequence (Q96SW2 whole entry): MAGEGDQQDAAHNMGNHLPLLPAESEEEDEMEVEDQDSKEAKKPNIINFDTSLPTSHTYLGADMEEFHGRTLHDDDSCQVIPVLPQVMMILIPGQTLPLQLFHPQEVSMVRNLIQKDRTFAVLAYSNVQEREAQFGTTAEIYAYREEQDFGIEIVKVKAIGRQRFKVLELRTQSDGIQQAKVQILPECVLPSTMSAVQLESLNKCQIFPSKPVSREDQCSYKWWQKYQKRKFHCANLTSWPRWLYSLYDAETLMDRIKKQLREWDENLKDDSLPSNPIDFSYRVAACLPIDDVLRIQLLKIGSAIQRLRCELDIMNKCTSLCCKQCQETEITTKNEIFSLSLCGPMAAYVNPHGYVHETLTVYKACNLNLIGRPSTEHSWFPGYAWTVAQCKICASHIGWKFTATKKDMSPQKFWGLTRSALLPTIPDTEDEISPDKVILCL
T1 sequence (Q16531 whole entry partner): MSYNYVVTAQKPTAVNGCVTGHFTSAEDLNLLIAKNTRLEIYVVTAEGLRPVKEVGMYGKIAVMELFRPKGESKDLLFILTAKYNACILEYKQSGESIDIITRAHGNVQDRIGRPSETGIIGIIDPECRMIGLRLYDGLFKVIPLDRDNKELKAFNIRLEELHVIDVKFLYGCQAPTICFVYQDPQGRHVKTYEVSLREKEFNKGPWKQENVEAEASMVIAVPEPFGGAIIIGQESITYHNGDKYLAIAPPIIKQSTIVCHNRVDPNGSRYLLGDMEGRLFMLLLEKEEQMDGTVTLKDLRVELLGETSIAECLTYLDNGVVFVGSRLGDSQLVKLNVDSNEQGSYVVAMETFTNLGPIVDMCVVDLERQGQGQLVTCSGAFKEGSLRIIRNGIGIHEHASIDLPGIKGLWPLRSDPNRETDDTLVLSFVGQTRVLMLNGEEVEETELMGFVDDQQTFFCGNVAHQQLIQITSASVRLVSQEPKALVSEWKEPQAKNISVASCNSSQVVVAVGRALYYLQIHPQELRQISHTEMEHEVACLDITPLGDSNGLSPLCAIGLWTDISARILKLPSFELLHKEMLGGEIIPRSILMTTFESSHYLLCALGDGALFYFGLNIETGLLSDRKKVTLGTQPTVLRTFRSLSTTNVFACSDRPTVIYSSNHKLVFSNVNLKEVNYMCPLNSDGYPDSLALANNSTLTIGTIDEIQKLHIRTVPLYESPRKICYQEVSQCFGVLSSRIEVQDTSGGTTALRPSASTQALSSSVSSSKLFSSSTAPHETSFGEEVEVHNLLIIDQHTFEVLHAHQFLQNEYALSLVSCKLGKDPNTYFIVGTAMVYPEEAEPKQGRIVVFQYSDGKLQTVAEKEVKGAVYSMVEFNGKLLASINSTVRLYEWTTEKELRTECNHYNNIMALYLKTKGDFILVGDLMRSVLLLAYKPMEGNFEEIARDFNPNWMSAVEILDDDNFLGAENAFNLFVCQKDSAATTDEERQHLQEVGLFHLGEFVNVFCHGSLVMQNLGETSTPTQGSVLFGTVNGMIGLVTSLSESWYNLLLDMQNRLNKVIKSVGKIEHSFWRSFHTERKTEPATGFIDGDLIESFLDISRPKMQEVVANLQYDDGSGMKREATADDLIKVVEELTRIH
Method: (§1) About 10,000 cells in complete DMEM cell culture media were seeded per well. Assay plates were incubated at 37° C. with 5% CO2 for hours, followed by the assessment of IKZF1 or SALL4 degradation using the Nano-Glo HiBiT Lytic Detection Reagent (Cat #N3050, Promega) according to the manufacturer's instruction. Luminescence was then measured with an EnVision plate reader (PerkinElmer) or a PHERAstar plate reader (BMG Labtech). All IKZF1 or SALL4 degradation curves were processed using Collaborative Drug Discovery Vault softwares. IKZF1 or SALL4 levels in compound-treated wells were normalized to that of DMSO control and expressed as Percent of Control (PoC, y). A four Parameter Logistic Model was used to determine the compound's EC50 and DC50, using the following equation:
(§2) A=Ymin (lowest IKZF1 or SALL4 level normalized to DMSO control in response to compound treatment, as determined by curve fit)
(§3) B=Ymax (IKZF1 or SALL4 level in DMSO control)
(§4) C=EC50 half degradation concentration
(§5) EC50=the concentration of compound when y=(Ymax−Ymin)/2
(§6) DC50=test sample concentration when IKZF1 or SALL4 readings y=50% DMSO-treated samples
(§7) y=IKZF1 or SALL4 readings after test sample treatment (normalized to IKZF1 or SALL4 readings in DMSO-treated samples)
(§8) Dmax represents the maximum percentage of IKZF1 or SALL4 protein degradation induced by compound treatment.

[2] = target: T2, HiBiT-tagged SALL4 (Homo sapiens, UniProt Q96SW2+Q9UJQ4); assay: Degradation assay for SALL4 (HiBiT tag bioluminescence assay); conditions: HT-1080 SALL4 HiBiT reporter cells; for DC50: read-out: HiBiT SALL4: DC50
T2 construct: expressed in transfected cells; host or cells: HT-1080 (ATCC CCL-121), lentiviral transduction
T2 sequence (Q9UJQ4 whole entry): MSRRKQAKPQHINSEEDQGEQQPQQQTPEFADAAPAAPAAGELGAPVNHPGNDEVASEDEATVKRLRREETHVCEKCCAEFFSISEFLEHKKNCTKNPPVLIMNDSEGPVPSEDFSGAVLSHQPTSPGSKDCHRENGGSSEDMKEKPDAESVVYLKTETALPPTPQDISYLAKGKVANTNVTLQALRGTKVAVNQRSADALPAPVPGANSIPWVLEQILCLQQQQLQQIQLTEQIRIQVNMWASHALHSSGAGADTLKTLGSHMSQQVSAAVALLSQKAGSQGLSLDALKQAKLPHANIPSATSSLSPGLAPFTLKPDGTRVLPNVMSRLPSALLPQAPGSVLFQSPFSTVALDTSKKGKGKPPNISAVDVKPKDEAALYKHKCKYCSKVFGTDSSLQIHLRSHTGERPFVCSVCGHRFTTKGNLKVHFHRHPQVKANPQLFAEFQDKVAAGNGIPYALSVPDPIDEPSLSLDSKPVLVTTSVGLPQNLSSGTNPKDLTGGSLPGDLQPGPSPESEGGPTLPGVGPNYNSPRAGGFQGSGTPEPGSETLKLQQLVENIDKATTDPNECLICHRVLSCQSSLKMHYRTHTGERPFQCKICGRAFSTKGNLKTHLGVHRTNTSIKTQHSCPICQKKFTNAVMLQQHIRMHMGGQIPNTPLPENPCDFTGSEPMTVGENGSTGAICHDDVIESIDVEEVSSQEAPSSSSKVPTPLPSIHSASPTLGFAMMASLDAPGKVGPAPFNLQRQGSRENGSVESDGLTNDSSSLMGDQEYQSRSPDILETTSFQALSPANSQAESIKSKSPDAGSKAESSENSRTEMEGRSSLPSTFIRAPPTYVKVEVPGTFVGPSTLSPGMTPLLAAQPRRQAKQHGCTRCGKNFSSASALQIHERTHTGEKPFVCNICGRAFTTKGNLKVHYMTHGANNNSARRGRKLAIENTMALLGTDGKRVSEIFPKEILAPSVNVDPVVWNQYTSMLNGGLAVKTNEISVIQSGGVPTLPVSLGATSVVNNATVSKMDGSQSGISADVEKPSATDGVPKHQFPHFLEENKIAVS
T2 sequence (Q96SW2 whole entry): as the sequence (Q96SW2 whole entry) above
T2 sequence (Q16531 whole entry partner): as the sequence (Q16531 whole entry partner) above
Method: as §1, §2, §3, §4, §5, §6, §7, §8

[3] = target: T1, HiBiT-tagged IKZF1; assay: IKZF1 protein degradation kinetics (IKZF1 HiBiT degradation assay, incubation 1, 2 or 4 hours)
Description: The following is a general method for testing compounds-induced degradation of HiBiT-tagged IKZF1 or SALL4 overexpressed in a human cell line, for example, the HT-1080 cell line (American Type Culture Collection (ATCC), catalog number CCL-121). The HT-1080 IKZF1 (or SALL4) HiBiT reporter cell line was engineered via lentiviral transduction to stably overexpress GSPT1 (Δ1-138)/G575N and HiBiT-tagged IKZF1 or SALL4. The HT-1080 IKZF1 (or SALL4) HiBiT reporter cell line was maintained in DMEM media supplemented with 10% fetal bovine serum, IX sodium pyruvate, 1× non-essential amino acids, IX glutamine, 100 U/ml penicillin, and 100 μg/mL streptomycin. The HT-1080 IKZF1 (or SALL4) HiBiT reporter cells were seeded into 384-well plates (Cat #3764, Corning) pre-spotted with DMSO or test compounds. Increasing concentrations of test compounds (ranging from 15.81 pM to 500 nM or from 0.3162 nM to 10 μM at a 3.162-fold increment) or DMSO were dispensed into an empty 384-well plate using an Echo 650 Acoustic Liquid Handler (Beckman Coulter). About 10,000 cells in complete DMEM cell culture media were seeded per well. Assay plates were incubated at 37° C. with 5% CO2 for hours, followed by the assessment of IKZF1 or SALL4 degradation using the Nano-Glo HiBiT Lytic Detection Reagent (Cat #N3050, Promega) according to the manufacturer's instruction. Luminescence was then measured with an EnVision plate reader (PerkinElmer) or a PHERAstar plate reader (BMG Labtech). All IKZF1 or SALL4 degradation curves were processed using Collaborative Drug Discovery Vault softwares. IKZF1 or SALL4 levels in compound-treated wells were normalized to that of DMSO control and expressed as Percent of Control (PoC, y). A four Parameter Logistic Model was used to determine the compound's EC50 and DC50, using the following equation: […]
The IKZF1 protein degradation kinetics of compounds 9-B and 9-A was evaluated using the IKZF1 HiBiT degradation assay as described above except that the incubation time was changed to 1, 2 or 4 hours.

[4] = tested on: MM.1S cells; assay: MM.1S cell proliferation assay (CellTiter-Glo); conditions: Homo sapiens, MM1.S, 120 h, read-out: MM.1S: IC50
Method: About 3,000 cells in 50 μL of culture medium were seeded per well. Assay plates were incubated at 37° C. with 5% CO2 for 120 hours. After that, 20 μL of the CellTiter-Glo Luminescent Cell Viability Assay Reagent (Cat #G7573, Promega) was added to each well and incubated at room temperature for 30 minutes. Luminescence was then measured with an EnVision plate reader (PerkinElmer) or a PHERAstar plate reader (BMG LABTECH). All percentage of cell growth inhibition curves were processed using Collaborative Drug Discovery Vault softwares. Cell viability reads in compound-treated wells were normalized to that of DMSO control and expressed as Percent of Control (PoC, y). A four Parameter Logistic Model was used to determine the compound's EC50 and DC50, using the following equation:
[formula] • wherein, • A=Ymin (lowest cell viability read normalized to DMSO control in response to compound treatment, as determined by curve fit) • B=Ymax (the maximum value, cell viability read in DMSO control) • C=EC50 half inhibitory concentration • D=Hill Slope • x=compound concentration
as §5
y=cell viability read normalized to DMSO control

[5] = HT-1080, Table 2, all compounds tested on the same day
[6] = Table 2, all compounds tested on the same day
[7] = HT-1080, Table 1, maximum percentage of protein degradation
[8] = Table 1, performed once with technical duplicates, some compounds tested on different days
[9] = after 1 hour of compound incubation
[10] = Table 1, maximum percentage of protein degradation

| SMILES | Dmax [1, 5] [%] | DC50 [1, 6] [nM] | Dmax [2, 5] [%] | DC50 [2, 6] [nM] | Dmax [1, 7] [%] | DC50 [1, 8] [nM] | Dmax [2, 7] [%] | DC50 [2, 8] [nM] | also measured |
| --- | --- | --- | --- | --- | --- | --- | --- | --- | --- |
| O=C1CCC(N2C(=O)c3cccc4c(Cc5ccc(CN6CCOCC6)cc5)ccc2c34)C(=O)N1 (stereo not shown) [Compound 19] | 93.5 | 0.157 | 64.6 | 5.2 |  |  |  |  |  |
| O=C1CCC(N2C(=O)c3cc(F)cc4c(Cc5ccc(CN6CCC(N7CCOCC7)CC6)cc5F)ccc2c34)C(=O)N1 (stereo not shown) [Compound 11] |  |  |  |  | 66.2 | 2.19 | 33.9 | > 10000 |  |
| N#Cc1ccc(N2CCN(Cc3ccc(Cc4ccc5c6c(ccc(F)c46)C(=O)N5C4CCC(=O)NC4=O)cc3)CC2)c(F)c1 (stereo not shown) [Compound 14] | 89.9 | 1 | 79.3 | 2 |  |  |  |  |  |
| N#Cc1ccc(N2CCN(Cc3ccc(Cc4ccc5c6c(cc(F)cc46)C(=O)N5[C@@H]4CCC(=O)NC4=O)cc3)CC2)c(F)c1 (single isomer, unassigned) [Compound 9-A] | 93.1 | 0.185 | 57 | 292 | 89.9 | 0.23 | 55.2 | 328 | DC50 [3, 9]: ~8 nM; Dmax [3, 9]: ~68%; DC50 ([3]; after 4 hours of incubation): 0.6 nM; Dmax ([3]; after 4 hours of incubation): 88% |
| N#Cc1ccc2c(c1)OC[C@H]1CN(Cc3ccc(Cc4ccc5c6c(cccc46)C(=O)N5C4CCC(=O)NC4=O)cc3)CCN21 (stereo partly shown) [Compound 3] |  |  |  |  | 93.3 | 0.038 | 68 | 2.4 |  |
| O=C1CCC(N2C(=O)c3cc(F)cc4c(Cc5ccc(CN6CC(N7CCOCC7)C6)cc5F)ccc2c34)C(=O)N1 (stereo not shown) [Compound 6] |  |  |  |  | 74.6 | 0.74 | 33.7 | > 10000 |  |
| Nc1cccc2c1C(=O)N(C1CCC(=O)NC1=O)C2=O (stereo not shown) [Pomalidomide] |  |  |  |  |  |  |  |  | IC50 [4]: > 30 nM; Dmax [1, 10]: 79.5%; Dmax [2, 10]: 69.7% |
| O=C1CCC(N2C(=O)c3cc(F)cc4c(Cc5ccc(CN6CCOCC6)cc5)ccc2c34)C(=O)N1 (stereo not shown) [Compound 12] |  |  |  |  | 69.3 | 5.89 | 32.5 | > 10000 |  |
| O=C1CCC(N2C(=O)c3cc(F)cc4c(Cc5ccc(CN6CCOCC6)cc5F)ccc2c34)C(=O)N1 (stereo not shown) [Compound 8] |  |  |  |  | 75.2 | 2.37 | 34.9 | > 10000 |  |
| N#Cc1ccc2c(c1)OC[C@H]1CN(Cc3ccc(Cc4ccc5c6c(cc(F)cc46)C(=O)N5C4CCC(=O)NC4=O)cc3)CCN21 (stereo partly shown) [Compound 1] |  |  |  |  | 93.2 | 0.025 | 57.4 | 117 |  |
| N#Cc1cnc2c(c1)OC[C@H]1CN(Cc3ccc(Cc4ccc5c6c(cccc46)C(=O)N5C4CCC(=O)NC4=O)c(F)c3)CCN21 (stereo partly shown) [Compound 4] |  |  |  |  | 93.5 | 0.026 | 68.6 | 1 |  |
| N#Cc1ccc2c(c1)OC[C@H]1CN(Cc3ccc(Cc4ccc5c6c(cccc46)C(=O)N5C4CCC(=O)NC4=O)cc3)CCN21 (stereo partly shown) [Compound 5] |  |  |  |  |  | 0.017 |  | 2 | HiBiT IKZF1: Dmax [1, 10]: 94.1%; HiBiT SALL4: Dmax [2, 10]: 76.5% |
| CC(C)(C)N1CCN(Cc2ccc(Cc3ccc4c5c(cc(F)cc35)C(=O)N4C3CCC(=O)NC3=O)c(F)c2)CC1 (stereo not shown) [Compound 13] |  |  |  |  | 87.3 | 1.22 | 49.1 | > 10000 |  |
| N#Cc1ccc(N2CCN(Cc3ccc(Cc4ccc5c6c(cc(Cl)cc46)C(=O)N5C4CCC(=O)NC4=O)cc3)CC2)c(F)c1 (stereo not shown) [Compound 17] | 41.1 | > 10 | 11.4 | > 10000 |  |  |  |  |  |
| N#Cc1ccc(N2CCN(Cc3ccc(Cc4ccc5c6c(c(F)ccc46)C(=O)N5C4CCC(=O)NC4=O)cc3)CC2)c(F)c1 (stereo not shown) [Compound 15] | 60.1 | 39.1 | 28.5 | > 10000 |  |  |  |  |  |
| N#Cc1ccc(N2CCN(Cc3ccc(Cc4ccc5c6c(cc(Br)cc46)C(=O)N5C4CCC(=O)NC4=O)cc3)CC2)c(F)c1 (stereo not shown) [Compound 16] | 92.2 | 1.23 | 65.8 | 772 |  |  |  |  |  |
| N#Cc1ccc2c(c1)OC[C@H]1CN(Cc3ccc(Cc4ccc5c6c(cc(F)cc46)C(=O)N5C4CCC(=O)NC4=O)cn3)CCN21 (stereo partly shown) [Compound 2] |  |  |  |  | 91.8 | 0.022 | 53.2 | 400 |  |
| O=C1CCC(N2C(=O)c3cc(F)cc4c(Cc5ccc(CN6CCC7(CCCO7)CC6)cc5F)ccc2c34)C(=O)N1 (stereo not shown) [Compound 7] |  |  |  |  | 86.3 | 0.13 | 45.4 | > 10000 |  |
| N#Cc1ccc(N2CCN(Cc3ccc(Cc4ccc5c6c(cccc46)C(=O)N5C4CCC(=O)NC4=O)cc3)CC2)c(F)c1 (stereo not shown) [Compound 20] | 96.9 | 0.014 | 79.3 | < 0.3 |  |  |  |  |  |
| N#Cc1ccc(N2CCN(Cc3ccc(Cc4ccc5c6c(cccc46)C(=O)N5C4CCC(=O)NC4=O)c(F)c3)CC2)c(F)c1 (stereo not shown) [Compound 18] | 96.1 | 0.014 | 80.5 | < 0.3 |  |  |  |  |  |
| N#Cc1cnc2c(c1)OC[C@H]1CN(Cc3ccc(Cc4ccc5c6c(cc(F)cc46)C(=O)N5C4CCC(=O)NC4=O)c(F)c3)CCN21 (stereo partly shown) [Compound 10] |  |  |  |  | 88.3 | 0.065 | 29.4 | > 10000 |  |
